Experimental data: ChEMBL document CHEMBL4610080, “Natural Products as Sources of New Drugs over the Nearly Four Decades from 01/1981 to 09/2019” (2020)

Key:
Assay type in all cases: functional
[1] = test system: Staphylococcus aureus; experiment: Antibacterial activity against Staphylococcus aureus NCTC 8325 assessed as reduction in microbial growth
[2] = test system: Enterococcus; experiment: Antibacterial activity against vancomycin-resistant Enterococcus assessed as reduction in microbial growth
[3] = test system: Mycobacterium tuberculosis; experiment: Antibacterial activity against Mycobacterium tuberculosis assessed as reduction in microbial growth

Row | Structure (SMILES) | MIC [1] [µg/mL] | MIC [2] [µg/mL] | MIC [3] [µg/mL]
1 | O=C(Nc1ccc2c(c1)OC(F)(F)O2)Nc1ccc(Cl)c(C(F)(F)F)c1 | 0.18 | 1 | 0.93
2 | CC(=O)NC[C@H]1CN(c2ccc(N3CCOCC3)c(F)c2)C(=O)O1 [LINEZOLID] | 1 | – | –
3 | CN[C@H](CC(C)C)C(=O)N[C@H]1C(=O)N[C@@H](CC(N)=O)C(=O)N[C@H]2C(=O)N[C@H]3C(=O)N[C@H](C(=O)N[C@H](C(=O)O)c4cc(O)cc(O)c4-c4cc3ccc4O)[C@H](O)c3ccc(c(Cl)c3)Oc3cc2cc(c3O[C@@H]2O[C@H](CO)[C@@H](O)[C@H](O)[C@H]2O[C@H]2C[C@](C)(N)[C@H](O)[C@H](C)O2)Oc2ccc(cc2Cl)[C@H]1O [VANCOMYCIN] | 1.4 | – | –
